Reference: BindingDB's records for doi:10.1021/jm0497242 (Leadscope, 2004)

Molecular target: T1, Tyrosine-protein phosphatase non-receptor type 1 (Homo sapiens, UniProt P18031)
T1 sequence (P18031 whole entry): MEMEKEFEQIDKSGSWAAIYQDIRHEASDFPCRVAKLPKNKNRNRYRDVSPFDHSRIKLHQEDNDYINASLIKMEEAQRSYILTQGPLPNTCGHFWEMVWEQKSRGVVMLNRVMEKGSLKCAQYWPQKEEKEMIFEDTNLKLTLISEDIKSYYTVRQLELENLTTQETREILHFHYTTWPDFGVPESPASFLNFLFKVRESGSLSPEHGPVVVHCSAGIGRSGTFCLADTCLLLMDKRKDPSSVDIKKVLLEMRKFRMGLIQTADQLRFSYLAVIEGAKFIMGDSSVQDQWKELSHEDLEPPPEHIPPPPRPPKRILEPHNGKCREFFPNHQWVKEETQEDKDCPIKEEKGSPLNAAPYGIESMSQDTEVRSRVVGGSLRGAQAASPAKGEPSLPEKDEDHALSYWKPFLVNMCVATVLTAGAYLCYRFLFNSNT
Experiment: Concentration required for 50% inhibition of tyrosine phosphatase 1B

IC50 [nM] | Structure (SMILES)
58.8 | O=C(O)[C@@H](Cc1ccccc1)Oc1ccc(-c2ccc(-c3c(Cc4ccccc4)sc4ccccc34)cc2)cc1Br
27.5 | O=C(O)c1cc(S(=O)(=O)Oc2ccc(-c3ccc(-c4c(Cc5ccccc5)oc5ccccc45)cc3)cc2)ccc1O [5-[4''-(2-Benzyl-benzofuran-3-yl)-biphenyl-4-yloxysulfonyl]-2-hydroxy-benzoic acid]
83.1 | O=C(O)CNc1cc(-c2ccc(-c3c(Cc4ccccc4)oc4ccccc34)cc2)ccc1OCCc1ccccc1 [[4'-(2-Benzyl-benzofuran-3-yl)-4-phenethyloxy-biphenyl-3-ylamino]-acetic acid]
